Measured values taken from article PMC4427169, “Identification and structure solution of fragment hits against kinetoplastid N-myristoyltransferase” (Acta Crystallographica. Section F, Structural Biology …, 2015).
Values joined by “and” are separate entries in the source; they are usually repeats but may differ in a detail not shown here. Equal values may be shown once. Read-outs that look alike come from different tables or passages of the source.

Tests used:
[1] = target: T1, LmNMT (Leishmania major, UniProt Q4Q5S8); assay: Biolayer interferometry binding, LmNMT; settings: for increase of affinity in the presence of myristoyl-CoA, LmNMT: with vs without myristoyl-CoA; for LE LmNMT, MYA (absence of cofactor) / LE LmNMT, +MYA: ligand efficiency calculated from K d; for LE LmNMT, MYA (absence of cofactor): absence of myristoyl-CoA; for LE LmNMT, +MYA: presence of myristoyl-CoA
T1 construct: LmNMT (5–421) was cloned into a pET-15b-derived vector; 6xHis followed by TEV cleavage site (N); made in house; host or cells: E. coli Rosetta (DE3)
Procedure: (§1) TbNMT and LmNMT were biotinylated by incubation with NHS-PEG4-biotin (Thermo) in a 1:1 molar ratio for 30 min at room temperature before free biotinylation reagent was removed by passage through a 2 ml Zeba desalt spin column (Thermo). Biolayer interferometry (BLI) measurements were carried out using an Octet RED 384 instrument (ForteBio). TbNMT and LmNMT were immobilized upon superstreptavidin (SSA) biosensors by incubation for 900 s at 25 and 50 µg ml^−1, respectively, before free streptavidin sites were blocked by a 60 s dip into 10 µg ml^−1 biocytin (Tocris). A control set of SSA biosensors were prepared in parallel by blocking the surface with biocytin. A seven-point concentration series was prepared for each fragment molecule in threefold dilution steps from a top concentration of 1 mM. For each set of biosensors, a 60 s baseline in buffer alone was acquired followed by a 60 s association step and a 180 s dissociation step. […] Data were processed and analysed and K d values were determined using the global fitting procedures as implemented in ForteBio Data Analysis Software v.7.0.1.5. The ligand efficiency metric was calculated using LE = −RTlnK d/heavy-atom count (Hopkins et al., 2004[▶]).

[2] = target: T2, TbNMT (Trypanosoma brucei brucei, UniProt Q388H8); assay: Biolayer interferometry binding, TbNMT; parameters: The gene encoding TbNMT was cloned into a pET-15-derived expression vector; 6xHis followed by TEV cleavage site (N); made in house; host or cells: Escherichia coli Rosetta (DE3); settings: for increase of affinity in the presence of myristoyl-CoA, TbNMT: with vs without myristoyl-CoA; for LE TbNMT, MYA (absence of cofactor) / LE TbNMT, +MYA: ligand efficiency calculated from K d; for LE TbNMT, MYA (absence of cofactor): absence of myristoyl-CoA; for LE TbNMT, +MYA: presence of myristoyl-CoA
T2 sequence (Q388H8 1-446): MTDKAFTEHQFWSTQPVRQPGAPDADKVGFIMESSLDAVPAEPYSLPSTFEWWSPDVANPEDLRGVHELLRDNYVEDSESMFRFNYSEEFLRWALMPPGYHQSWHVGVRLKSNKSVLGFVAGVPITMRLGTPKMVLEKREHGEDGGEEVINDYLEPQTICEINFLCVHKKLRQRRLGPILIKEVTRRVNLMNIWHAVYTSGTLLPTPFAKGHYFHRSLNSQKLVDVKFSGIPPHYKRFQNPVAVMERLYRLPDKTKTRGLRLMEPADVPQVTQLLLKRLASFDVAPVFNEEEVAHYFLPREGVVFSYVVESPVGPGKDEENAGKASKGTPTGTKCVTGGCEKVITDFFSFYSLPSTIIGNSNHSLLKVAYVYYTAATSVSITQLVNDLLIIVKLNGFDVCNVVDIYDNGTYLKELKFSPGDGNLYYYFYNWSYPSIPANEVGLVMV
Procedure: as §1

[3] = target: T2, TbNMT; assay: Fragment screen by ligand-observed NMR spectroscopy (STD, water-LOGSY, CPMG) with DDD85646 competition; settings: fragments at 500 µM, binding and competition with 50 µM DDD85646 in STD
Procedure: TbNMT was prepared at 10 µM in 25 mM sodium phosphate pH 7.4 and 10% deuterated water and the cofactor myristoyl-CoA was added to a final concentration of 50 µM.

[4] = target: T2, TbNMT; assay: Radiometric SPA-based enzyme-inhibition assay, TbNMT; format: biochemical; parameters: The gene encoding TbNMT was cloned into a pET-15-derived expression vector; 6xHis followed by TEV cleavage site (N); made in house; host or cells: Escherichia coli Rosetta (DE3); settings: single fragment concentration of 0.5 mM
Procedure: (§2) Activity assays for TbNMT and LmNMT were carried out using a radiometric SPA-based assay as described previously (Frearson et al., 2010[▶]; Brand et al., 2014[▶]). Percentage inhibition (PI) was determined using a fragment concentration of 0.5 mM in the assay.

[5] = target: T1, LmNMT; assay: Radiometric SPA-based enzyme-inhibition assay, LmNMT; format: biochemical; settings: single fragment concentration of 0.5 mM
Procedure: as §2

[6] = parameters: method as in Frearson et al., 2010; settings: ref Frearson et al., 2010; cited from earlier work
[7] = BLI, absence of the cofactor myristoyl-CoA (MYA), read-out: K d LmNMT, MYA (absence of cofactor)
[8] = BLI, presence of 1 µM myristoyl-CoA (MYA), read-out: K d LmNMT, +MYA
[9] = BLI, absence of the cofactor myristoyl-CoA (MYA), read-out: K d TbNMT, MYA (absence of cofactor)
[10] = BLI, presence of 1 µM myristoyl-CoA (MYA), read-out: K d TbNMT, +MYA

T1 sequence (Q4Q5S8 entry or part of it): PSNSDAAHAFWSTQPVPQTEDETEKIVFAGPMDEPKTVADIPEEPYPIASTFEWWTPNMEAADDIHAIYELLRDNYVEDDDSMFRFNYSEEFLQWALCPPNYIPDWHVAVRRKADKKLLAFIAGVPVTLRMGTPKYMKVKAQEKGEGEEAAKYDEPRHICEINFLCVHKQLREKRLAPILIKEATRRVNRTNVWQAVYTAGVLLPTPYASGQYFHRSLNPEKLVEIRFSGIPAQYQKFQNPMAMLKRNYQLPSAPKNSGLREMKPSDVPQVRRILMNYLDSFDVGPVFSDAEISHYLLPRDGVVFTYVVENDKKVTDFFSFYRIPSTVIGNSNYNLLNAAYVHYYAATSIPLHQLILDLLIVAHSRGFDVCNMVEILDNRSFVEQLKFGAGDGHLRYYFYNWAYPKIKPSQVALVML

| Compound | Kd [1, 7] [µM] | Kd [1, 8] [µM] | increase of affinity in the presence of myristoyl-CoA, LmNMT ([1]; BLI) | LE LmNMT, MYA (absence of cofactor) [1] | LE LmNMT, +MYA [1] | Kd [2, 9] [µM] | Kd [2, 10] [µM] | increase of affinity in the presence of myristoyl-CoA, TbNMT ([2]; BLI) | LE TbNMT, MYA (absence of cofactor) [2] | LE TbNMT, +MYA [2] | NMR hit class [3] | PI (%) TbNMT [4] [%] | PI (%) LmNMT [5] [%] | CNS exposure [6] | Kd [1] [µM] | Kd [2] [µM] |
| --- | --- | --- | --- | --- | --- | --- | --- | --- | --- | --- | --- | --- | --- | --- | --- | --- |
| CNCc1cccc(CN2CCOCC2)c1 [Fragment 2] | 980 | 200 | around fivefold | 0.25 | 0.31 | 760 | 90 | around fivefold | < 0.3 and 0.26 | > 0.3 and 0.34 | class I | 36 | 55 |  |  |  |
| CNCc1cc(-c2ccccc2)nn1C [Fragment 3] | 700 | 180 | around fivefold | 0.28 | 0.34 | 530 | 200 | around fivefold | < 0.3 and 0.30 | > 0.3 and 0.33 | class II | 70 | 52 |  |  |  |
| Cc1nn(C)c(C)c1NS(=O)(=O)c1c(Cl)cc(-c2ccnc(N3CCNCC3)c2)cc1Cl [DDD85646] |  |  |  |  |  |  |  |  |  |  |  |  |  | lack of CNS exposure |  |  |
| Nc1ccccc1N1CCNCC1 [Fragment 4] |  |  |  | 0.42 |  |  |  |  | 0.45 |  | class II |  | 53 |  | 98 | 48 |
